These results are taken from PubChem BioAssay (NCI).

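Exposure lasted 48 hours, with cells grown in 96-well plates and compounds tested at five concentrations. GI50 = concentration required for 50% inhibition of growth. At the TGI there is no net growth.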 Some results are limits rather than exact numbers.

Test systems include CAKI-1 renal; HCC-2998 colon; HCT-116 colon; HS 578T breast; HT29 colon; MDA-MB-435; OVCAR-8 ovarian; PC-3 prostate; SK-OV-3 ovarian; T-47D breast.
What all share (assay): inhibition of tumour cell growth, NCI panel, 48 h

Take `COc1cc(-n2cc(-c3ccc(Cl)cc3)n(-c3ccccc3)c2=O)cc(OC)c1OC`: the GI50 is 26.8 µM in the assay on CAKI-1 renal; 22.9 µM in the assay with HCC-2998 colon; 13.7 µM with HCT-116 colon; 25.6 µM in the assay on HS 578T breast; 16.6 µM with HT29 colon; 18.7 µM with MDA-MB-435. Also, the GI50 in the assay with OVCAR-8 ovarian was 27.7 µM; in the assay with PC-3 prostate it was over 37.7 µM; in the assay with SK-OV-3 ovarian, 30.8 µM; in the assay on T-47D breast, 8.01 µM. The TGI is over 89.9 µM in the assay on CAKI-1 renal; over 100 µM in the assay on HCC-2998 colon; over 89 µM in the assay with HCT-116 colon; over 100 µM in the assay on HS 578T breast; over 100 µM with HT29 colon; over 86.3 µM in the assay with MDA-MB-435. Besides, the TGI in the assay with OVCAR-8 ovarian is over 100 µM; in the assay with PC-3 prostate it was over 100 µM; with SK-OV-3 ovarian it was over 90.7 µM; with T-47D breast, 74 µM.
Consider `Nc1nc(-c2cccnc2)cc(-c2cc(-c3cccnc3)nc(N)n2)n1`, for which the TGI with CAKI-1 renal, in the assay on HCC-2998 colon, with HCT-116 colon, with HS 578T breast, in the assay with HT29 colon and in the assay with MDA-MB-435 was over 100 µM each time. Also, the TGI in the assay on OVCAR-8 ovarian, with PC-3 prostate, with SK-OV-3 ovarian and in the assay with T-47D breast was over 100 µM in each case.
On to `NC(=O)c1cn(C2CC(O)C(CO)O2)c2ncnc(N)c12` (stereo not given), for which the GI50 in the assay with CAKI-1 renal is 3.2 µM; in the assay with HCC-2998 colon, 1.47 µM; with HCT-116 colon, 4.1 µM; in the assay on HS 578T breast, 2.27 µM; in the assay on HT29 colon, 2.07 µM; in the assay on MDA-MB-435 it was 2.42 µM. Moreover, the GI50 with OVCAR-8 ovarian is 2.09 µM; in the assay with PC-3 prostate it was 1.57 µM; in the assay on SK-OV-3 ovarian, 1.68 µM; in the assay on T-47D breast it was 0.0549 µM. Also, the TGI with CAKI-1 renal is 39.4 µM; in the assay on HCC-2998 colon, 5.62 µM; with HCT-116 colon, over 100 µM; in the assay on HS 578T breast, 17.3 µM; in the assay on HT29 colon, over 54.8 µM; in the assay with MDA-MB-435, over 100 µM. Also, the TGI with OVCAR-8 ovarian was 17.9 µM; in the assay on PC-3 prostate, over 35.4 µM; in the assay with SK-OV-3 ovarian it was 43 µM; in the assay with T-47D breast it was 1.82 µM.
Consider `Cc1[nH]c2ccccc2c1CO`, for which the GI50 in the assay with CAKI-1 renal is 14.9 µM; with HCC-2998 colon, 21.2 µM; in the assay with HCT-116 colon, 15.2 µM; in the assay with HS 578T breast, 15.6 µM; in the assay with HT29 colon it was 15.9 µM; in the assay on MDA-MB-435 it was 16.8 µM. In addition, the GI50 in the assay on OVCAR-8 ovarian was 31 µM; in the assay with PC-3 prostate, 17 µM; with SK-OV-3 ovarian, 35.1 µM; in the assay on T-47D breast it was 29.3 µM. Besides, the TGI in the assay with CAKI-1 renal is 42.2 µM; in the assay on HCC-2998 colon it was 47.2 µM; in the assay with HCT-116 colon, 28.5 µM; in the assay on HS 578T breast it was 44 µM; in the assay on HT29 colon, 34.7 µM; in the assay with MDA-MB-435, 36.6 µM. For the same compound, the TGI with OVCAR-8 ovarian is over 100 µM; in the assay with PC-3 prostate, 43.7 µM; in the assay on SK-OV-3 ovarian it was over 100 µM; in the assay on T-47D breast it was over 100 µM.
`CCOC(=O)c1c(NN2CCN(CC(F)(F)F)CC2)oc(/C=C2\C=Nc3ncccc32)c1O`: the GI50 was 1.08 µM with CAKI-1 renal; 2.7 µM in the assay with HCC-2998 colon; 2.09 µM in the assay on HCT-116 colon; 0.913 µM in the assay on HS 578T breast; 2.47 µM in the assay on HT29 colon; 3.36 µM with MDA-MB-435. For the same compound, the GI50 in the assay with OVCAR-8 ovarian was 4.14 µM; with PC-3 prostate, 4.04 µM; with SK-OV-3 ovarian it was 2.93 µM; in the assay on T-47D breast, 5.08 µM. For the same compound, the TGI in the assay on CAKI-1 renal is 13.5 µM; in the assay on HCC-2998 colon, 12.6 µM; in the assay on HCT-116 colon, 17.7 µM; with HS 578T breast it was 6.72 µM; in the assay on HT29 colon, 17.1 µM; in the assay on MDA-MB-435 it was 16.8 µM. Further, the TGI was 20.6 µM in the assay on OVCAR-8 ovarian, 21.4 µM in the assay with PC-3 prostate, 19.8 µM in the assay with SK-OV-3 ovarian and 34.8 µM in the assay with T-47D breast.
Take `CCCCN(CCCC)P(=O)(Oc1ccccc1)Oc1ccccc1`: the GI50 with CAKI-1 renal is 2.42 µM; in the assay with HCC-2998 colon, 10 µM; in the assay with HCT-116 colon, 3.39 µM; with HS 578T breast it was 6.6 µM; in the assay on HT29 colon it was 4.95 µM; in the assay on MDA-MB-435 it was 6.2 µM. In addition, the GI50 with OVCAR-8 ovarian was 11.1 µM; in the assay on PC-3 prostate, 3.79 µM; with SK-OV-3 ovarian, 14.9 µM; in the assay with T-47D breast it was 7.46 µM. For the same compound, the TGI in the assay on CAKI-1 renal turned out to be 11.3 µM; in the assay on HCC-2998 colon, 22.2 µM; with HCT-116 colon, 16.8 µM; in the assay with HS 578T breast, 24.8 µM; in the assay with HT29 colon it was 21.6 µM; in the assay with MDA-MB-435, 19.9 µM. In addition, the TGI in the assay with OVCAR-8 ovarian amounted to 27.4 µM; in the assay on PC-3 prostate it was 17.6 µM; in the assay on SK-OV-3 ovarian it was 33.6 µM; in the assay on T-47D breast, 33.1 µM.
`O=C1CN=C(c2ccc[nH]2)c2cc(Cl)ccc2N1`: the GI50 in the assay on CAKI-1 renal is over 100 µM; with HCC-2998 colon it was over 100 µM; in the assay on HCT-116 colon, 13 µM; in the assay on HS 578T breast it was over 100 µM; in the assay on HT29 colon it was 38.9 µM; with MDA-MB-435, over 100 µM. The GI50 in the assay on OVCAR-8 ovarian is over 100 µM; in the assay on PC-3 prostate, 93.4 µM; with SK-OV-3 ovarian it was over 100 µM; in the assay with T-47D breast, over 100 µM. Also, the TGI in the assay with CAKI-1 renal, in the assay on HCC-2998 colon, with HCT-116 colon, in the assay with HS 578T breast, in the assay on HT29 colon and in the assay with MDA-MB-435 was over 100 µM throughout. Moreover, the TGI in the assay on OVCAR-8 ovarian, in the assay with PC-3 prostate, in the assay on SK-OV-3 ovarian and with T-47D breast was over 100 µM each time.
On to `COc1ccc(Sc2[nH]c(C=O)c3ccccc23)cc1`, for which the GI50 with CAKI-1 renal was 16.7 µM; in the assay with HCC-2998 colon, 5.44 µM; in the assay on HCT-116 colon it was 12.7 µM; with HS 578T breast it was 6.44 µM; in the assay on HT29 colon, 4.02 µM; in the assay on MDA-MB-435, 2.68 µM. The GI50 in the assay with OVCAR-8 ovarian was 14.1 µM; with PC-3 prostate, 13.3 µM; with SK-OV-3 ovarian it was 4.99 µM; with T-47D breast it was 9.08 µM. Further, the TGI in the assay on CAKI-1 renal came to 84 µM; in the assay with HCC-2998 colon, 18.2 µM; in the assay on HCT-116 colon, 25.3 µM; in the assay with HS 578T breast, 33.6 µM; in the assay with HT29 colon, 14.1 µM; in the assay with MDA-MB-435 it was 11.5 µM. For the same compound, the TGI was found to be 32 µM in the assay with OVCAR-8 ovarian, 41.4 µM with PC-3 prostate, 24.9 µM in the assay on SK-OV-3 ovarian and 30.2 µM in the assay on T-47D breast.
As to `Cc1ccc(-c2cc(C(=O)Nc3ccc(S(=O)(=O)N4CCCCC4)cc3)[nH]n2)c(O)c1`, the GI50 in the assay with CAKI-1 renal, in the assay on HCC-2998 colon, in the assay on HCT-116 colon, in the assay with HS 578T breast, in the assay with HT29 colon and with MDA-MB-435 was over 100 µM in each case. The GI50 in the assay on OVCAR-8 ovarian, with PC-3 prostate, in the assay with SK-OV-3 ovarian and in the assay with T-47D breast was over 100 µM each time. For the same compound, the TGI with CAKI-1 renal, in the assay on HCC-2998 colon, in the assay on HCT-116 colon, in the assay with HS 578T breast, in the assay with HT29 colon and in the assay on MDA-MB-435 was over 100 µM throughout. Also, the TGI in the assay on OVCAR-8 ovarian, in the assay on PC-3 prostate, with SK-OV-3 ovarian and in the assay on T-47D breast was over 100 µM each time.
Turning to `COC(=O)[C@H](Cc1cn(C)cn1)NC(=O)[C@H](CC(C)C)NC(=O)Nc1cc(C(F)(F)F)cc(C(F)(F)F)c1`, the GI50 with CAKI-1 renal is over 10 µM; with HCC-2998 colon, 5.62 µM; with HCT-116 colon it was 2.14 µM; in the assay with HS 578T breast, over 10 µM; in the assay on HT29 colon it was 8.05 µM; with MDA-MB-435 it was over 10 µM. Further, the GI50 in the assay with OVCAR-8 ovarian is 9.54 µM; with PC-3 prostate, 4.64 µM; in the assay on SK-OV-3 ovarian, over 10 µM; in the assay with T-47D breast, 6.56 µM. Also, the TGI in the assay on CAKI-1 renal was over 10 µM; in the assay on HCC-2998 colon, over 10 µM; in the assay with HCT-116 colon, 4.14 µM; in the assay on HS 578T breast, over 10 µM; with HT29 colon it was over 10 µM; in the assay on MDA-MB-435, over 10 µM. For the same compound, the TGI in the assay with OVCAR-8 ovarian, with PC-3 prostate, with SK-OV-3 ovarian and with T-47D breast was over 10 µM in each case.
Take `c1cc(OCCN2CCCC2)ccc1CNc1ccc2nc(CCC3CCCCC3)[nH]c2c1`: the GI50 in the assay with CAKI-1 renal is 1.79 µM; in the assay with HCC-2998 colon, 2.03 µM; in the assay on HCT-116 colon, 1.43 µM; in the assay with HS 578T breast, 1.62 µM; in the assay on HT29 colon, 0.535 µM; in the assay with MDA-MB-435, 1.62 µM. Also, the GI50 in the assay with OVCAR-8 ovarian was 2.69 µM; in the assay with PC-3 prostate, 1.93 µM; in the assay with SK-OV-3 ovarian, 2.15 µM; in the assay with T-47D breast, 1.81 µM. The TGI was 3.38 µM in the assay with CAKI-1 renal; 4.29 µM with HCC-2998 colon; 3.2 µM in the assay with HCT-116 colon; 4.53 µM with HS 578T breast; 2.23 µM in the assay with HT29 colon; 3.08 µM in the assay with MDA-MB-435. Also, the TGI with OVCAR-8 ovarian turned out to be 10 µM; in the assay with PC-3 prostate, 5.16 µM; in the assay on SK-OV-3 ovarian, 4.5 µM; in the assay with T-47D breast it was 4.9 µM.
